Experimental data as given in patent US20260053827A1, “Cannabidiol Solid Dosage Forms” (priority 2024, published 2026).

Details: saturation solubility of CBD in the liquid lipid given as label; supernatant assayed
Procedure: Each liquid lipophilic material was heated at 40° C. for 30 minutes in an oven before being combined with the CBD. 10 g of CBD was combined with 5 g of lipophilic material to create a saturated mixture. […] After agitation the solutions were centrifuged at 14800 rpm for 90 minutes to separate out any remaining undissolved CBD crystals. The resulting supernatant was sampled and assayed for CBD content to confirm the saturation solubility of the lipid.

Question: Which “CBD” value does the source give for `CCOCCOCCO` [Transcutol] here?
Answer: The value was 653.2 mg/g.
